Data reported in patent publication US20070275147A1, “SYNTHETIC SWEETENER COMPOSITIONS WITH IMPROVED TEMPORAL PROFILE AND/OR FLAVOR PROFILE, METHODS FOR THEIR FORMULATION, AND USES” (THE COCA-COLA COMPANY, priority 2005, published 2007).

Key:
[1] = test system: panel of experts in the sensory evaluation of foods and beverages; test: Sensory evaluation of sweetness onset and sweetness linger by expert panel; type: in vivo, human; parameters: key to Sweetness Linger: 0: no sweetness linger; 1: very slight sweetness linger; 2: slight sweetness linger; 3: moderate sweetness linger; 4: moderately high sweetness linger; 5: high sweetness linger; key to Sweetness Onset: 1: quick onset; 2: moderate onset; 3: slow onset; conditions: for Sweetness Linger: rating scale 0-5, sweetness 2-3 min after water rinse, for ranges the lowest rating of all levels is reported; for Sweetness Onset: rating scale 1-3, ca. 10 mL sample tasted and expectorated, sucrose and neotame controls for calibration
Procedure: An exemplary method of sensory evaluation is provided in the following protocol, similar to that described hereinabove. In this test protocol, none of the samples were swallowed. All samples were expectorated and the mouth was rinsed with water after the tasting. In step 1, the 10% sucrose control sample was tasted by distributing ca. 10 mL of sample quickly throughout the oral cavity, wherein the maximal “Sweetness Intensity” was measured. This intensity is defined as a 10 on a 0-15 scale where 0 is defined as no perceptible sweetness and 15, the sweetness of 15% sucrose. The “Overall Quality” of the taste was also measured in the sucrose control and was defined as a 6 on a 1-9 scale. Immediately upon sensing maximal sweetness, the sample was expectorated, the mouth was rinsed with water and the rate of sweetness decay (“Sweetness Linger”) and “Sweetness Onset” were measured, where attention was focused on the sweetness 2-3 min after the water rinse. The sweetness linger was rated by a panel of experts in the sensory evaluation of foods and beverages using the following scale: 0=no sweetness linger, 1=very slight sweetness linger, 2=slight sweetness linger, 3=moderate sweetness linger, 4=moderately high sweetness linger, 5=high sweetness linger. The sweetness onset was rated by a panel of experts using the following scale: 1=quick onset, 2=moderate onset, 3 slow onset. After sample tasting was complete, a salty oyster cracker was chewed followed by a water rinse, and at least 5 minutes followed before tasting the next sample.
The “Sweetness Linger” rating for sucrose observed by this protocol was defined as 0 and the “Sweetness Onset” was defined as 1. The Sweetness Onset and Sweetness Linger of a neotame control sample were defined as 3 and 5, respectively.
Following calibration with the sucrose and neotame control samples, the experimental samples were tasted by the same protocol, always allowing sufficient time between samples to ensure re-equilibration of the sensory system. Re-tasting of control samples during the course of the experiment was allowed and encouraged.
The comparison taste test was performed between two controls and addition of sweet taste improving additive on the onset and/or sweetness linger.
In Examples A1-A7, where there are ranges provided, the beverage samples were made with 5-7 levels from the top to the bottom of the range, using a 1:1 dilution of the corresponding sweet taste improving compositions. The sweetness linger rating reported was the most sugar-like in sweetness linger (the lowest numerical value) attained of all the samples (i.e., the shortest sweetness linger).

[2] = Osmolarity of solution; type: physicochemical; conditions: sucrose at 10%
From the text: Average concentrations of inorganic ions present in saliva, which are responsible for nearly all of the osmolarity of saliva, are as illustrated in Table 1 below. From the data shown, it is clear that saliva typically has an osmolarity of 70 mOsM. Sucrose at 10%, however, is 292 mOsM, more than 4-fold higher, and therefore will cause significant shrinkage of taste bud cell volume and signaling to the central nervous system (CNS). Osmolarity refers to the measure of osmoles of solute per liter of solution, wherein osmole is equal to the number of moles of osmotically active particles in an ideal solution (e.g., a mole of glucose is one osmole), whereas a mole of sodium chloride is two osmoles (one mole of sodium and one mole of chloride). Thus, in order to improve in the quality of taste of synthetic sweeteners, the osmotically active compounds or the compounds which impart osmolarity must not introduce significant off taste to the formulation.

COC(=O)[C@H](Cc1ccccc1)NC(=O)[C@H](CC(=O)O)NCCC(C)(C)C [neotame]
Sweetness Linger [1]: 5 | Sweetness Onset [1]: 3

OC[C@H]1O[C@@](CO)(O[C@H]2O[C@H](CO)[C@@H](O)[C@H](O)[C@H]2O)[C@@H](O)[C@@H]1O [sucrose]
osmolarity [2]: 292 mOsM | Sweetness Linger [1]: 0 | Sweetness Linger ([1]; listed as sugar): 1 | Sweetness Onset [1]: 1
